The results in this text go back to patent publication US20050137215A1, “[C]-fused bicyclic proline derivatives and their use for treating arthritic conditions” (priority 2003, published 2005).

Where a name gives a salt, the structure may show the parent alone. Where only a bound is given, the exact number is not on record here.

In series [1] the test system is Monosodium Iodoacetate-Induced Osteoarthritis in Rat Model of Joint Cartilage Damage. The experiment in a line: Monosodium iodoacetate-induced osteoarthritis in rat (MIA Rat), loss of hind limb joint function. In kind it is in vivo. Conditions: male Wistar rats, MIA 1 mg/joint, 10 mg/kg/day subcutaneously via osmotic pump. From the text: Monosodium Iodoacetate-Induced Osteoarthritis in Rat Model of Joint Cartilage Damage (“MIA Rat”):
One end result of the induction of osteoarthritis in this model, as determined by histologic analysis, is the development of an osteoarthritic condition within the affected joint, as characterized by the loss of Toluidine blue staining and formation of osteophytes. Associated with the histologic changes is a concentration-dependent degradation of joint cartilage, as evidenced by affects on hind-paw weight distribution of the limb containing the affected joint, the presence of increased amounts of proteoglycan or hydroxyproline in the joint upon biochemical analysis, or histopathological analysis of the osteoarthritic lesions.
The invention compounds typically are not effective for relieving joint pain when administered in an acute model, such as the instant MIA Rat model, which has a duration of just 14 or 28 days.
Generally, In the MIA Rat model on Day 0, the hind-paw weight differential between the right arthritic joint and the left healthy joint of male Wistar rats (150 g) are determined with an incapacitance tester, model 2KG (Linton Instrumentation, Norfolk, United Kingdom). The incapacitance tester has a chamber on top with an outwardly sloping front wall that supports a rat's front limbs, and two weight sensing pads, one for each hind paw, that facilitates this determination. Then the rats are anesthetized with isofluorine, and the right, hind leg knee joint is injected with 1.0 mg of mono-iodoacetate (“MIA”) through the infrapatellar ligament. Injection of MIA into the joint results in the inhibition of glycolysis and eventual death of surrounding chondrocytes. The rats are further administered either an invention compound or vehicle (in the instant case, water) daily for 14 days or 28 days.
The invention compound is typically administered at a dose of 30 mg of per kilogram of rat per day (30 mg/kg/day), but may be administered at other doses such as, for example, 10 mg/kg/day, 60 mg/kg/day, 90-mg/kg/day, or 100 mg/kg/day according to the requirements of the invention compound being studied. It is well within the level of ordinary skill in the pharmaceutical arts to determine a proper dosage of an invention compound in this model.
Administration of an invention compound in this model is optionally by oral administration or by intravenous administration via an osmotic pump. After 7 and 14 days for a two week study, or 7, 14, and 28 days for a four week study, the hind-paw weight distribution is again determined. Typically, the animals administered vehicle alone place greater weight on their unaffected left hind paw than on their right hind paw, while animals administered an invention compound show a more normal (i.e., more like a healthy animal) weight distribution between their hind paws. This change in weight distribution was proportional to the degree of joint cartilage damage. Percent inhibition of a change in hind paw joint function is calculated as the percent change in hind-paw weight distribution for treated animals versus control animals. For example, for a two week study, [formula] wherein: ΔWC is the hind-paw weight differential between the healthy left limb and the arthritic limb of the control animal administered vehicle alone, as measured on Day 14; and • ΔWG is the hind-paw weight differential between the healthy left limb and the arthritic limb of the animal administered an invention compound as measured on Day 14.
Administration via osmotic pump is preferable for screening compounds. In a particular experiment, monosodium iodoacetate (“MIA”) (1 mg/joint) was injected through the infrapatellar ligament of the right knee of anesthetized male, Wistar rats. The contralateral control knee was injected with 50 μL of physiologic saline. […]

Series [2] deals with alpha-2-delta receptor 1 (Sus scrofa, UniProt A0A287BIN3). The experiment in a line: [3H]Gabapentin A2DR1 binding assay. Also on record: species or system pig. Conditions: Biological Method 4; read-out: A2DR1 IC50, displacement of [3H]-gabapentin. From the text: (§1) [^3H]Gabapentin A2DR1 and A2DR2 Binding Assays (“A2DR1” and “A2DR2”, Respectively)
(§2) HEK 293 recombinant cells expressing A2DR1 or A2DR2 protein are harvested and washed in phosphate buffered saline (“PBS”). The cells are centrifuged and resuspended in tris(hydroxymethyl)aminomethane-ethylenediaminetetraacetic acid (“Tris-EDTA” or “TE”) buffer containing Roche Complete Protease Inhibitor Cocktail. The cells are homogenized, centrifuged at 3000×g, and the supernatant centrifuged again at 50,000×g. The resulting pellet is resuspended and homogenized in TE. Following determination of A2DR1 or A2DR2 protein concentration, aliquots are stored at −70° C. until the day of testing (membrane preparation may be used for at least 6 months).
(§3) In one version, the binding assay is set up in a 96-well format using deep-well polypropylene plates. […] Non-specific binding for each plate is determined by the addition of 10 μM of pregabalin instead of test compound in a few of the 96 wells. […] The mats are placed into plastic pouches, scintillation cocktail is added, the pouches are sealed, and radioactivity for each sample is counted.
(§4) Specific binding values for each concentration are transformed and then analyzed by a 4-parameter nonlinear regression equation provided by Prism graphics software by Graph Pad to determine IC50 values by conventional means.
Displacement of [3H]-gabapentin from an alpha-2-delta receptor-1 or an alpha-2-delta receptor-2 by certain invention compounds is evidenced below in Table 2. In Table 2, the displacement was determined according to one of the above Biological Methods 4 or 6, and reported as an IC50 in micromolar concentration of invention compound in the columns labeled “A2DR1 IC50 (μM),” “A2DR2 IC50 […],” and “GABAPAA IC50 (μM),” respectively, for a reference compound, racemic octahydroisoindole-2-carboxylic acid (“OHIII2CA”) and certain invention compounds, which are referenced by Compound Example number in the column labeled “Compound Example No.”.

Series [3] has as its target alpha-2-delta receptor 2 (UniProt A0A8W4FF87). The experiment in a line: [3H]Gabapentin A2DR2 binding assay. Conditions: Biological Method 4; read-out: A2DR2 IC50, displacement of [3H]-gabapentin. Also on record: species or system pig.
Text: as §1, §2, §3
Specific binding values for each concentration are transformed and then analyzed by a 4-parameter nonlinear regression equation provided by Prism graphics software by Graph Pad to determine IC50 values by conventional means. […]

Series [4] has as its target alpha-2-delta receptors, membrane from pig cortex (Sus scrofa, UniProt O77773). The experiment in a line: [3H]Gabapentin A2DR binding assay (GABAPAA / GABAP). As to conditions: Biological Method 6, pig cortex membrane; read-out: GABAPAA IC50, displacement of [3H]-gabapentin. Here is the method: In one version, the binding assay is set up in a 96-well format using deep-well polypropylene plates. In a total volume of 500 μL, the following additions are made: 250 μL buffer [10 mM N-2-hydroxyethylpiperazine-N′-2-ethanesulfonic acid (“HEPES”), pH 7.4], 25 μL [3H]gabapentin (10 nM final concentration), 200 μL thawed tissue membrane preparation from Step (1) (˜40 μg protein), and 25 μL of test compound at 7 test dilutions (for example, 0.001, 0.01, 0.03, 0.1, 0.3, 1.0, and 10 μM concentrations). Non-specific binding for each plate is determined by the addition of 10 μM of pregabalin instead of test compound in a few of the 96 wells. Following incubation for 45 minutes at 21° C., the contents of the wells are filtered under vacuum onto glass filter/B (“GF/B”) filter mats and then washed 4×1 mL with chilled 50 mM tris(hydroxymethyl)aminomethane (“Tris”) HCl, pH 6.9. The mats are placed into plastic pouches, scintillation cocktail is added, the pouches are sealed, and radioactivity for each sample is counted.
as §4
[^3H]Gabapentin A2DR Binding Assay (“GABAPAA” or “GABAP”) […]

The target of series [5] is leucine transport system (Cricetulus griseus, UniProt G3GRU9). The experiment in a line: Leucine transport system binding assay (LTSBA), [3H]leucine uptake in CHO K1 cells. In kind it is cell-based. Conditions: conclusion from Table 3. Here is the method: Leucine Transport System Binding Assay (“LTSBA”) The sodium-containing buffer for transport assay was phosphate buffered saline (“PBS”) consisting of 137 mM NaCl, 2.7 mM KCl, 10.6 mM Na2HPO4, and 1.5 mM KH2PO4. The sodium-free buffer had equimolar amounts of choline chloride and choline phosphate in place of NaCl and […], respectively. This buffer is referred to as PBC. Prior to use, both PBS and PBC buffers (pH 7.4) were supplemented with 5.6 mM D-glucose, 0.49 mM MgCl2, and 0.9 mM CaCl2 (GMC). For cultured monolayer cells (in general, CHO K1 cells), the cluster tray transport assay was used as described previously (Su et al, J. Neurochem., 1995; 64:2125-2131, and references therein). […] The initial transport rates were determined by measuring uptake of tracer [3H] […] Secondary analysis of the initial velocity kinetic curves were determined by non linear regression analysis, using the equation: log V=log {[Vmax.S/(Km+S)]+P.[S]} where V, S, Vmax, and Km have their conventional meanings, and P represents the first order rate constant describing the nonsaturable uptake. An IC50 was determined as percentage inhibition of saturable leucine uptake. […] They were calculated by subtracting the corresponding substrate uptake rates in the presence of 10 mM excess unlabeled leucine from the total uptake rates. […] The efflux was calculated as percentage of the intracellular labeled substrate at zero time. […]
leucine transport system, sequence (G3GRU9 entry or part of it): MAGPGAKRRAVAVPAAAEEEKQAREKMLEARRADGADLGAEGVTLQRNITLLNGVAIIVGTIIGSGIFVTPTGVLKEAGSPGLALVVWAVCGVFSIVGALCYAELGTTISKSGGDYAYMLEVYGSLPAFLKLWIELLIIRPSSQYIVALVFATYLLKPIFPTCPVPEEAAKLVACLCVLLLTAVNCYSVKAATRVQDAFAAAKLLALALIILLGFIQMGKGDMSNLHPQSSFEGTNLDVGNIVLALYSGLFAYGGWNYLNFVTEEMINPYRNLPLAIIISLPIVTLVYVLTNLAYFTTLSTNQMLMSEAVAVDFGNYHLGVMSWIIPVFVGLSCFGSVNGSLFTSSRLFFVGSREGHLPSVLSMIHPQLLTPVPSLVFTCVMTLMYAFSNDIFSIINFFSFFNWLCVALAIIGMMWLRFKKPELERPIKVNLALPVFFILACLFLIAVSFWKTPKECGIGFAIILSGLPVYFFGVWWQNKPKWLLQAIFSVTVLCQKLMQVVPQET
leucine transport system, sequence (A0A9J7CH39 entry or part of it, further chain): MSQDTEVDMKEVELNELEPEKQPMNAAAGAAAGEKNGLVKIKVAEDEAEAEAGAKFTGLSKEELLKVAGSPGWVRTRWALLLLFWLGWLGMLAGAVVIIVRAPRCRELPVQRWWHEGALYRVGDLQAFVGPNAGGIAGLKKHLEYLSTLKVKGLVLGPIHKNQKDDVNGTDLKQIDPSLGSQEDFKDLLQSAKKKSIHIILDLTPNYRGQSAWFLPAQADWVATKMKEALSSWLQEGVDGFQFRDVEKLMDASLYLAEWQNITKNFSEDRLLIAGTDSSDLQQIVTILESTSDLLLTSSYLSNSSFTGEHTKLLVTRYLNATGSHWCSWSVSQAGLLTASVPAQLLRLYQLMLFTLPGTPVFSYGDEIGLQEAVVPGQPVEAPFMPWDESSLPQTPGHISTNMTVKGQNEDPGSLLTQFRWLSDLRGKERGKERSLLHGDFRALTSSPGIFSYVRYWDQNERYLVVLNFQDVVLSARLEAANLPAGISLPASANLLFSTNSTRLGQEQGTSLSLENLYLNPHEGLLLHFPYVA

alpha-2-delta receptors, membrane from pig cortex, sequence (O77773 25-1091): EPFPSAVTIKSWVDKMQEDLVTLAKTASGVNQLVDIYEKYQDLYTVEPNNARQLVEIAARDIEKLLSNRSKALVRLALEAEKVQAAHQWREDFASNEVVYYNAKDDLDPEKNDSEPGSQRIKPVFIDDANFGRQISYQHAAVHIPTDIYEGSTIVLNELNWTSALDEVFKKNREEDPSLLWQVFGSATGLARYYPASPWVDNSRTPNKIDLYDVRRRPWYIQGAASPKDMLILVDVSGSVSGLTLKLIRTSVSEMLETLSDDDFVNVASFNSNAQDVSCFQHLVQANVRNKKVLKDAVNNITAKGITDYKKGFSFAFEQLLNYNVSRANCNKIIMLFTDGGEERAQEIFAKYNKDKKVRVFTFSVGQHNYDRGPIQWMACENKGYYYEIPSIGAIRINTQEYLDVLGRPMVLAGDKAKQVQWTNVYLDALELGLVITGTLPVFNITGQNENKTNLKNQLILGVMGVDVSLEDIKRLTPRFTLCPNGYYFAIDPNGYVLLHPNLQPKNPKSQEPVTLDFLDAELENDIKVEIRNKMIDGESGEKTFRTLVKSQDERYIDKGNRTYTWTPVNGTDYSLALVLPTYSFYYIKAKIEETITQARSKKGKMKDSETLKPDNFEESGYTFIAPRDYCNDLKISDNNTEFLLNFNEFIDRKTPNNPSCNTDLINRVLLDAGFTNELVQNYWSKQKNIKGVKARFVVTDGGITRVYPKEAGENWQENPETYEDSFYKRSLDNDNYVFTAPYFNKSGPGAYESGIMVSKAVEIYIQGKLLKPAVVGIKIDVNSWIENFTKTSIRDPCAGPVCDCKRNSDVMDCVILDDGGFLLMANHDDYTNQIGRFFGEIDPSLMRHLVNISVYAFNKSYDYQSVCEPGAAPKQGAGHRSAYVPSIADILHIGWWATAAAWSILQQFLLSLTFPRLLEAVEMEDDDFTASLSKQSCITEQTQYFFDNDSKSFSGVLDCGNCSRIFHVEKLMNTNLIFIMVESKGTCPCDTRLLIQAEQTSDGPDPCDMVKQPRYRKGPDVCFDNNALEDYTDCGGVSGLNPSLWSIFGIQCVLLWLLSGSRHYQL

Turning to `COC1CC2CNC(C(=O)O)C2CC1OC` (centres unmarked), the melting point was 235 to 241 °C (dec.).

Regarding `O=C(O)C1NCC2C1CCC2(F)F` (centres unmarked), the melting point is 200 to 205 °C (dec.).

The compound `O=C(O)[C@@H]1NC[C@@H]2[C@H]1[C@H]1CC[C@@H]2O1` (racemic) displayed a melting point of 188 to 190 °C.

The compound `O=C(O)[C@@]12CCCN1C[C@H]1CCCC[C@H]12` (racemic) (as salt: hydrochloride) came in with a melting point of 250 to 255 °C.

As for `CC1(C)N[C@H](C(=O)O)[C@@H]2CCCC[C@H]21` (racemic) [Example B5], the “% I @ 10 mg/kg/day (%) (± SEM): inhibition of loss of hind limb joint function in MIA at Day 14” value in series [1] came to 32%. The half-inhibitory concentration (IC50) in series [2] and in series [3] was ≥ 10 µM throughout.

As to `O=C(O)N1CC2CCCCC2C1` (racemic) [OHII2CA, racemic octahydroisoindole-2-carboxylic acid], in series [4], the 50% inhibitory concentration (IC50) worked out at 30 nM.

Turning to `CN1CC2CCCCC2C1(C)C(=O)O` (centres unmarked) [Example B1], the “% I @ 10 mg/kg/day (%) (± SEM): inhibition of loss of hind limb joint function in MIA at Day 14” value in series [1] came out at 32%.

For the compound `C[C@]1(C(=O)O)NC[C@H]2CCCC[C@H]21` [Example B2], the “% I @ 10 mg/kg/day (%) (± SEM): inhibition of loss of hind limb joint function in MIA at Day 14” value in series [1] is on record as −5%. Moreover, the IC50 in series [2] and in series [3] was ≥ 10 µM each time.

As to `CC12CCCCC1CNC2C(=O)O` (centres unmarked) [Example B4], in series [1], the “% I @ 10 mg/kg/day (%) (± SEM): inhibition of loss of hind limb joint function in MIA at Day 14” value is listed as 13%.

In the case of `O=C(O)[C@@]12CCCN1C[C@H]1CCCC[C@H]12` [Example M1], in series [2], the half-maximal inhibitory concentration (IC50) was ≥ 10 µM.

In the case of `CN1C[C@H]2C3CCC(CC3)[C@H]2[C@@H]1C(=O)O` [Example R2], the “% I @ 10 mg/kg/day (%) (± SEM): inhibition of loss of hind limb joint function in MIA at Day 14” value in series [1] is given as −20%.

With `O=C(O)C1NCC2C3CCC(CC3)C12` (centres unmarked) [Example R3], the “% I @ 10 mg/kg/day (%) (± SEM): inhibition of loss of hind limb joint function in MIA at Day 14” value in series [1] is on record as 20%.

Regarding `Cl.O=C(O)N1CC2CCCCC2C1` (centres unmarked) [OHII2CA HCl, octahydroisoindole-2-carboxylic acid hydrochloride], the “binding to the leucine transport system (in words)” value in series [5] is given as “weakly bind or do not bind”.
